Source: ChEMBL document CHEMBL5303304, “EUbOPEN Chemogenomics Library - IncuCyte” (2023)

Legend:
Assay type in all cases: toxicity, cell-based
[1] = tested on: Fibroblast; assay: Incucyte cell viability with human fibroblast; conditions: 10 µM, compound concentration 10 uM
[2] = tested on: HEK-293T; assay: Incucyte cell viability with HEK293T; conditions: human, 10 µM, compound concentration 10 uM
[3] = tested on: U2OS; assay: Incucyte cell viability with U2OS; conditions: human, 10 µM, compound concentration 10 uM
Further: unitless GR value; below 1 slowed growth and below 0 cell loss.

Compound | Growth Rate ([1]; 0 h, replicate number 1) | Growth Rate ([1]; 6 h, replicate number 1) | Growth Rate ([1]; 6 h, replicate number 2) | Growth Rate ([1]; 12 h, replicate number 2) | Growth Rate ([1]; 18 h, replicate number 2) | Growth Rate ([1]; 24 h, replicate number 2) | Growth Rate ([2]; 0 h, replicate number 2) | Growth Rate ([2]; 6 h, replicate number 1) | Growth Rate ([3]; 6 h, replicate number 1) | Growth Rate ([3]; 6 h, replicate number 2) | Growth Rate ([3]; 12 h, replicate number 2) | Growth Rate ([3]; 18 h, replicate number 2) | Growth Rate ([3]; 24 h, replicate number 2) | Growth Rate ([1]; 18 h, replicate number 1) | Growth Rate ([2]; 6 h, replicate number 2) | Growth Rate ([2]; 12 h, replicate number 2) | Growth Rate ([2]; 18 h, replicate number 1) | Growth Rate ([2]; 18 h, replicate number 2) | Growth Rate ([2]; 24 h, replicate number 1) | Growth Rate ([2]; 24 h, replicate number 2) | further results
Br.CO[C@H]1CC=C2CCN3CCC4=C(CC(=O)OC4)[C@]23C1 | 0.93 | -1 | 0.8 | 0.64 | 0.7 | 0.72 | 0.77 | 0.59 | 0.39 | 0.78 | 0.77 | 0.87 | 1 | – | – | – | – | – | – | – | Growth Rate ([1]; 0 h, replicate number 2): 0.3
CC(C1CC2CCC1C2)n1c(S)nnc1-c1ccco1 (stereo not given) | – | – | – | – | – | – | 0.53 | 0.59 | 0.78 | 0.22 | 0.67 | 0.78 | 0.89 | -0.08 | 0.46 | 0.63 | 0.69 | 0.74 | 0.75 | 0.81 | Growth Rate ([1]; 12 h, replicate number 1): -1; Growth Rate ([2]; 12 h, replicate number 1): 0.81; Growth Rate ([3]; 12 h, replicate number 1): 0.97
CC1(C)CC(=O)c2c(SCCO)sc(-c3nccs3)c2C1 | – | -1 | – | – | – | – | 0.82 | – | 0.66 | – | – | – | 0.97 | – | – | – | – | – | – | – | Growth Rate ([1]; 0 h, replicate number 2): -0.3; Growth Rate ([3]; 12 h, replicate number 1): 0.87; Growth Rate ([3]; 18 h, replicate number 1): 0.97
CCCCCN1C(=O)C2(COc3cc4c(cc32)OCO4)c2ccccc21 (stereo not given) | – | – | -0.97 | 0.76 | 0.91 | 0.74 | 0.62 | 0.51 | – | 0.76 | 0.8 | 0.98 | 0.88 | -0.52 | 0.92 | – | – | – | – | – | Growth Rate ([1]; 24 h, replicate number 1): 0.82; Growth Rate ([3]; 0 h, replicate number 1): -0.63; Growth Rate ([3]; 0 h, replicate number 2): -1
CCN(c1ccccc1)c1cc(NC)[n+](C)c(C)n1.[Cl-] | -0.7 | – | -1 | 0.8 | – | 0.91 | 0.56 | 0.95 | 0.41 | 0.69 | 0.84 | 0.83 | – | -0.22 | – | – | 0.58 | 0.99 | 0.79 | – | Growth Rate ([1]; 24 h, replicate number 1): 0.44; Growth Rate ([2]; 12 h, replicate number 1): 0.84; Growth Rate ([3]; 0 h, replicate number 2): -0.9; Growth Rate ([3]; 24 h, replicate number 1): 0.87
Cc1cc(C)cc(C(=O)NOCCCCCC(=O)NO)c1 | -0.28 | – | -0.16 | 0.86 | 0.23 | 0.51 | 0.89 | – | 0.62 | 0.86 | 0.58 | 0.5 | 0.22 | -0.74 | – | 0.82 | 0.12 | 0.44 | 0.14 | 0.28 | Growth Rate ([1]; 12 h, replicate number 1): -0.96; Growth Rate ([1]; 24 h, replicate number 1): -0.33; Growth Rate ([2]; 12 h, replicate number 1): 0.34; Growth Rate ([3]; 18 h, replicate number 1): 0.71; Growth Rate ([3]; 24 h, replicate number 1): 0.26
S=c1[nH]nc(-c2cccs2)n1-c1ccccc1 | 0.04 | – | -0.3 | – | – | – | 0.81 | 0.53 | – | 0.93 | 0.8 | 0.87 | – | -0.25 | 0.97 | 0.73 | 0.91 | 0.87 | 0.9 | 0.83 | Growth Rate ([1]; 0 h, replicate number 2): -0.79; Growth Rate ([1]; 12 h, replicate number 1): -0.72; Growth Rate ([1]; 24 h, replicate number 1): 0.01; Growth Rate ([2]; 12 h, replicate number 1): 0.58; Growth Rate ([3]; 0 h, replicate number 1): 0.53; Growth Rate ([3]; 18 h, replicate number 1): 0.95
COc1cc(NC(=O)c2ccc(-c3ccc(Cl)cc3)o2)cc(OC)c1 | 0.51 | – | -1 | 0.03 | 0.54 | 0.45 | 0.52 | 0.31 | – | 0.2 | 0.72 | 0.89 | 0.79 | 0.5 | – | – | – | – | – | – | Growth Rate ([3]; 0 h, replicate number 1): 0.66; Growth Rate ([3]; 24 h, replicate number 1): 0.98
C[C@@H](CN1CCC(Cc2ccccc2)CC1)[C@@H](O)c1ccc(O)cc1 | – | -0.49 | -0.45 | 0.48 | 0.53 | 0.68 | 0.98 | – | 0.07 | – | – | 0.99 | – | – | 0.36 | 0.86 | – | – | – | – | Growth Rate ([1]; 12 h, replicate number 1): -0.59; Growth Rate ([1]; 24 h, replicate number 1): 0.78; Growth Rate ([3]; 0 h, replicate number 1): -0.54; Growth Rate ([3]; 0 h, replicate number 2): -0.81; Growth Rate ([3]; 12 h, replicate number 1): 0.85; Growth Rate ([3]; 18 h, replicate number 1): 0.98; Growth Rate ([3]; 24 h, replicate number 1): 0.96
Cn1ncnc1COc1nn2c(-c3cc(F)ccc3F)nnc2cc1C(C)(C)C | 0.93 | – | – | 0.29 | 0.56 | 0.57 | 0.38 | – | 0.51 | – | 0.78 | 0.76 | 0.76 | – | 0.37 | 0.63 | 0.42 | 0.77 | 0.28 | 0.88 | Growth Rate ([2]; 12 h, replicate number 1): 0.42
CC[C@@]1(c2ccccc2)NC(=O)N(Cc2ccccc2)C1=O | 0.94 | -0.93 | – | 0.07 | 0.7 | 0.58 | 0.93 | – | 0.55 | – | – | – | 0.99 | – | – | 0.77 | 0.95 | 0.86 | 0.84 | 0.82 | Growth Rate ([1]; 0 h, replicate number 2): 0.5; Growth Rate ([3]; 0 h, replicate number 2): -0.81
CC(C)(C)C1CCc2c(sc(NC(=O)c3ccco3)c2C(=O)O)C1 (stereo not given) | -0.35 | 0.79 | -0.97 | 0.65 | – | – | 0.67 | -0.05 | -0.02 | 0.95 | 0.8 | 0.79 | 0.84 | -0.68 | 0 | -0.11 | -0.24 | -0.17 | -0.21 | -0.13 | Growth Rate ([1]; 0 h, replicate number 2): -0.91; Growth Rate ([1]; 12 h, replicate number 1): -1; Growth Rate ([2]; 12 h, replicate number 1): -0.04; Growth Rate ([3]; 0 h, replicate number 2): -1
Cn1c(=O)n(CCCO)c(=O)c2c1nc(Oc1cccc(Cl)c1)n2Cc1ccc(Cl)cc1 | – | – | -0.99 | 0.66 | – | 0.85 | 0.3 | – | 0.38 | – | 0.93 | 0.82 | 0.89 | 0.33 | 0.26 | 0.77 | – | 0.84 | – | 0.83 | Growth Rate ([3]; 18 h, replicate number 1): 0.86; Growth Rate ([3]; 24 h, replicate number 1): 0.94
C=CC(=O)Nc1cccc(C(=O)Nc2ccc(NC(=O)c3cccc(-c4ccn[nH]4)n3)cc2)c1 | 0 | -0.7 | – | – | – | – | 0.5 | 0.54 | – | – | – | – | 0.92 | – | 0.82 | 0.37 | 0.81 | 0.59 | – | 0.55 | Growth Rate ([3]; 0 h, replicate number 1): -0.99; Growth Rate ([3]; 0 h, replicate number 2): -0.56
COc1cc(C(C)C)c(Oc2cnc(NC(CO)CO)nc2N)cc1I | – | -0.93 | 0.67 | 0.88 | 0.94 | – | 0.85 | – | 0.05 | – | 1 | – | – | – | 0.97 | 0.76 | – | 0.82 | – | 0.89 | Growth Rate ([1]; 0 h, replicate number 2): 0.81; Growth Rate ([1]; 24 h, replicate number 1): 1; Growth Rate ([3]; 0 h, replicate number 2): -0.32; Growth Rate ([3]; 12 h, replicate number 1): 0.93; Growth Rate ([3]; 18 h, replicate number 1): 0.97; Growth Rate ([3]; 24 h, replicate number 1): 0.83
COc1cc([N+](=O)[O-])ccc1NC(=O)c1ccccc1O | – | -0.98 | – | 0.57 | 0.65 | 0.64 | 0.91 | -0.49 | 0.2 | 0.94 | 0.63 | 0.46 | 0.55 | – | -0.12 | -0.05 | -0.01 | -0.02 | 0.08 | -0.01 | Growth Rate ([1]; 0 h, replicate number 2): 0.04; Growth Rate ([2]; 12 h, replicate number 1): -0.12; Growth Rate ([3]; 0 h, replicate number 1): 0.1; Growth Rate ([3]; 0 h, replicate number 2): -0.67; Growth Rate ([3]; 12 h, replicate number 1): 0.27; Growth Rate ([3]; 18 h, replicate number 1): 0.4; Growth Rate ([3]; 24 h, replicate number 1): 0.48
